For series [1], the system named is PTEN, BCL2L11, PHF6, IKZF1, NF1, FBXW7. Description: 3′UTR reporter, quantitative PCR and immunoblot assays of tumor suppressor genes in murine leukemias. The series is classed as cell-based. Conditions: murine T-ALLs expressing NOTCH1 and miRNA, mRNA, protein. On the procedure:
Immunoblots of whole cell lysates were performed as described (Wendel, et al., 2004). Antibodies were against Bim/Bcl2l11 (AAP-330, 1:1000, Assay Designs), Nf1 (sc67, 1:100, Santa Cruz), Cdc4/Fbxw7 (ab7405, 1:500, Abeam), Ikzf1 (sc-13039, 1:500, Santa Cruz), Phf6 (NB100-79861, 1:1000, Novus Biologicals), Pten (9559, 1:1000, Cell Signaling), tubulin (1:5000; Sigma, B-5-1-2) and actin (1:5000; Sigma, AC-15).
Total RNA and miRNA-enriched RNA was extracted using the Allprep DNA/RNA/Protein and miRNeasy Mini kits. Pathological diagnosis was by expert hematopathologists at Weill Cornell Medical Center. cDNA synthesis, PCR and analysis by the ΔΔ Ct method were as described (Mavrakis, et al., 2008) and utilized Taqman Gene Expression Assays: Bcl2l11 (Mm00437796_m1), BCL2L11 (Hs00197982_m1), Pten (Mm01212532_m1), PTEN (Hs02621230_s1), Nf1 (Mm00812430_m1), NF1 (Hs01035104_m1), Ikzf1 (Mm01187878_m1), IKZF1 (Hs00172991_m1), Fbxw7 (Mm00504452_m1), FBXW7 (Hs00217794_m1), Phf6 (Mm00804415_m1), and Mouse GAPD (GAPDH) (4352932, Applied Biosystems). Expression was normalized to RNU6B (001093, Applied Biosystems).
The mouse FBXW7 (bp 2793-4139; acc. no. NM_001177773), human NF1 (bp 10033-10666; acc. no NM_000267), human PHF6 (bp position 3271-4299; acc. no. NM_001015877) and Bim (bp. 3155-4773; acc. no. NM_009754) 3′UTR fragments were generated by PCR and cloned into the psi-CHECK-2 vector (Promega) with the exception of the IKZF1 3′UTR, which was purchased from Genecopoeia (cat no. HmiT000397b, by 2343-4471 of UTR). The assays were performed as described (Xiao, et al., 2008).
(In general: In western blotting, separated proteins are transferred to a membrane and probed.)

The next series has as its system NOTCH1-induced T-ALL. The series can be described thus: Mouse model of Notch-ICN (NOTCH1)-induced T-ALL, adoptive transfer of transduced HPCs. The series is classed as in vivo. Conditions: HPCs expressing NOTCH1-ICN plus miRNA or shRNA transplanted into irradiated recipients. On the procedure:
Can miR-19 drive the development of lymphatic malignancies in vivo? Based on the miR-19 expression and translocation data, miR-19 was assessed in a mouse model of T-ALL (Pear, et al., 1996). Briefly, most cases of T-ALL carry mutations in the Notch1 gene, and, like the […] translocation, these generate the constitutively active intracellular domain of NOTCH1 (Notch-ICN) (Weng, et al., 2004). To test miR-19's ability to promote Notch-ICN-induced T-ALL in vivo, HPCs were adoptively transferred into irradiated recipients (FIG. 3d). […] At the same time, 80% of the mice receiving HPCs expressing only Notch-ICN remained disease free (p=0.0003) (FIG. 3e).
The mouse models of Notch1-induced T-ALL and the EμMyc lymphoma based on adoptive transfer of retrovirally transduced HPCs have been reported (Pear, et al., 1996), (Wendel, et al., 2004). Data were analyzed in Kaplan-Meier format using the log-rank (Mantel-Cox) test for statistical significance. The p53 loss of heterozygosity polymerase chain reaction (LOH PCR) and immunophenotyping by surface marker analysis were as described (Wendel, et al., 2004).
A murine model of NOTCH1-induced T-ALL was used to directly test the oncogenic potential of the most promising miRNAs in vivo. Briefly, HPCs were transduced with NOTCH1 together with either empty vector or an miRNA and transplanted into irradiated, syngeneic recipients. Animals were monitored for leukemia onset by regular blood counts (FIG. 22a). […] Typically, animals receiving HPCs transduced with these miRNAs develop an acute leukemia by 75 days, while >80% of vector controls or animals receiving miR-30 (n=5, p=0.15) remain disease free at this time (FIG. 22b). Based on the in vitro screen and prediction, additional miRNAs were tested. […] Thus, miR-19b, miR-20a, miR-26a, miR-223 and also the less abundant miR-27a and miR-148/152 behave as oncogenes in a murine T-ALL model.
The mouse T-ALL model has been reported (Pear, et al., 1996), (Wendel, et al., 2004). Data were analyzed in Kaplan-Meier format using the log-rank (Mantel-Cox) test for statistical significance. […]

Consider “miR-148: miRNA, UCAGUGCACUACAGAACUUUGU (SEQ ID NO: 8) (expressed or natural sequence; listed as Homo sapiens)”, for which the “regulation of tumor suppressor genes” value in series [1] was “regulate IKZF1, NF1 and FBXW7”. Besides, the “leukemia onset / leukemia-free survival” value with NOTCH1-induced T-ALL is given as “significant disease acceleration”.
